Results: ChEMBL document CHEMBL1201862, “PubChem BioAssay data set” (2004)
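Exposure lasted 48 hours, with cells grown in 96-well plates and compounds tested at five concentrations. At the GI50, growth is halved.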 Activity calls are given as the source filed them. No stated cut-off is given here; in the data, active = GI50 up to about 1.1 µM and inactive = higher.

Tests used:
Test in all cases: NCI-60 cell line screen, 48 h
786-0 = test system: 786-0
ACHN = test system: ACHN
COLO 205 = test system: COLO 205
EKVX = test system: EKVX
HOP-62 = test system: HOP-62
IGROV-1 = test system: IGROV-1
LOX IMVI = test system: LOX IMVI
MCF7 = test system: MCF7
MOLT-4 = test system: MOLT-4
NCI-H460 = test system: NCI-H460
OVCAR-8 = test system: OVCAR-8
SK-OV-3 = test system: SK-OV-3
SN12C = test system: SN12C
SNB-75 = test system: SNB-75
SW-620 = test system: SW-620
T47D = test system: T47D
UACC-257 = test system: UACC-257
UO-31 = test system: UO-31
DU-145 = test system: DU-145
RXF 393 = test system: RXF 393

| SMILES | GI50 (786-0) | GI50 (ACHN) | GI50 (COLO 205) | GI50 (EKVX) | GI50 (HOP-62) | GI50 (IGROV-1) | GI50 (LOX IMVI) | GI50 (MCF7) | GI50 (MOLT-4) | GI50 (NCI-H460) | GI50 (OVCAR-8) | GI50 (SK-OV-3) | GI50 (SN12C) | GI50 (SNB-75) | GI50 (SW-620) | GI50 (T47D) | GI50 (UACC-257) | GI50 (UO-31) | GI50 (DU-145) | GI50 (RXF 393) |
| --- | --- | --- | --- | --- | --- | --- | --- | --- | --- | --- | --- | --- | --- | --- | --- | --- | --- | --- | --- | --- |
| C[C@@]12c3c4ccc(C=O)c3Oc3ccc(C=O)c(c31)Oc1c(C=O)ccc(c12)O4 | > 100 µM (inactive) | > 100 µM (inactive) | > 100 µM (inactive) | > 100 µM (inactive) | > 100 µM (inactive) | > 100 µM (inactive) | > 100 µM (inactive) | > 100 µM (inactive) | > 100 µM (inactive) | > 100 µM (inactive) | > 100 µM (inactive) | > 100 µM (inactive) | > 100 µM (inactive) | > 100 µM (inactive) | > 100 µM (inactive) | > 100 µM (inactive) | > 100 µM (inactive) | > 100 µM (inactive) |  |  |
| CCOC(=O)/C(=C\c1ccc(O)c(OC)c1)C(=O)c1ccccc1 | 16.7 µM (inactive) | 15.8 µM (inactive) | 36.1 µM (inactive) | > 38.9 µM (inactive) | > 10 µM (inactive) | 19.2 µM (inactive) | 7.21 µM (inactive) |  | 12.4 µM (inactive) | 22.2 µM (inactive) | 11.7 µM (inactive) | > 42.8 µM (inactive) | 11.1 µM (inactive) | 20.2 µM (inactive) | 13.1 µM (inactive) |  | 18.4 µM (inactive) | 23 µM (inactive) | 23.1 µM (inactive) | 22.7 µM (inactive) |
| CC1(CCOCc2ccccc2)NC(=O)NC1=O (centres undefined) | > 100 µM (inactive) | > 100 µM (inactive) |  | > 100 µM (inactive) | > 100 µM (inactive) | > 100 µM (inactive) | > 100 µM (inactive) |  | > 100 µM (inactive) | > 100 µM (inactive) | > 100 µM (inactive) |  | > 100 µM (inactive) |  | > 100 µM (inactive) |  | > 100 µM (inactive) | > 100 µM (inactive) | > 100 µM (inactive) | > 100 µM (inactive) |
| O=C1/C(=C/c2ccc(OC(=O)c3ccccc3)cc2)CCC/C1=C\c1ccc(OC(=O)c2ccccc2)cc1 | > 100 µM (inactive) | > 100 µM (inactive) | > 100 µM (inactive) | > 100 µM (inactive) | > 100 µM (inactive) | > 100 µM (inactive) | > 100 µM (inactive) | > 100 µM (inactive) | > 100 µM (inactive) | > 100 µM (inactive) | > 100 µM (inactive) |  | > 100 µM (inactive) | 93.3 µM (inactive) | > 100 µM (inactive) | > 100 µM (inactive) | > 100 µM (inactive) | > 100 µM (inactive) | > 100 µM (inactive) |  |
| O=C1c2ccccc2-c2c1c(-c1ccc([N+](=O)[O-])cc1)nc1ccc3ccccc3c21 | > 100 µM (inactive) | > 100 µM (inactive) | > 100 µM (inactive) | > 100 µM (inactive) | > 100 µM (inactive) |  |  | > 100 µM (inactive) | > 100 µM (inactive) | > 100 µM (inactive) | > 100 µM (inactive) | > 100 µM (inactive) | > 100 µM (inactive) | > 100 µM (inactive) | > 100 µM (inactive) | > 100 µM (inactive) | > 100 µM (inactive) | > 100 µM (inactive) | > 100 µM (inactive) |  |
| C=C1C(=O)OC2C1CCC(C)C1(O)C=CC(=O)C21C (centres undefined) | 6.11 µM (inactive) | 5.66 µM (inactive) | > 10 µM (inactive) | > 10 µM (inactive) | > 10 µM (inactive) | > 10 µM (inactive) | > 10 µM (inactive) | > 10 µM (inactive) | 3.1 µM (inactive) | > 10 µM (inactive) | 3.5 µM (inactive) | > 10 µM (inactive) | > 10 µM (inactive) | 6.65 µM (inactive) | 3.44 µM (inactive) | 6.31 µM (inactive) |  | 3.24 µM (inactive) |  | 9.31 µM (inactive) |
| O=C(CNC(c1ccccc1)(c1ccccc1)c1ccccc1)NC1CCCCC1NC(=O)CNC(c1ccccc1)(c1ccccc1)c1ccccc1 (centres undefined) | 85.7 µM (inactive) | > 100 µM (inactive) | > 100 µM (inactive) | 2.99 µM (inactive) | 27.8 µM (inactive) | > 100 µM (inactive) | > 100 µM (inactive) | > 100 µM (inactive) | > 100 µM (inactive) | > 100 µM (inactive) | > 100 µM (inactive) | > 100 µM (inactive) | > 100 µM (inactive) |  | > 100 µM (inactive) | > 100 µM (inactive) | > 100 µM (inactive) | > 100 µM (inactive) | > 100 µM (inactive) |  |
| CCOc1cc2c(cc1O)C(O)C[C@@H]1[C@@H]2CC[C@]2(C)[C@@H](O)CC[C@@H]12 (some centres undefined) | 0.324 µM (active) | 0.553 µM (active) | 19.3 µM (inactive) | 1.32 µM (inactive) | 0.675 µM (active) | 0.431 µM (active) | 0.299 µM (active) | 0.268 µM (active) | 0.692 µM (active) | 0.265 µM (active) | 0.885 µM (active) | 0.493 µM (active) | 0.61 µM (active) | 0.619 µM (active) | 0.317 µM (active) |  | 0.444 µM (active) | 0.767 µM (active) | 0.59 µM (active) | 1.44 µM (inactive) |
| COc1cc(/C=C2/C(=O)N(C(=O)OCc3ccccc3)C(Cc3cc(OC)c(OC)c(C)c3OC)C(=O)N2Cc2ccccc2)c(OC)c(C)c1OC (centres undefined) | > 100 µM (inactive) | > 100 µM (inactive) | > 100 µM (inactive) | > 100 µM (inactive) | > 100 µM (inactive) | > 100 µM (inactive) | > 100 µM (inactive) |  | 8.09 µM (inactive) | 3.52 µM (inactive) | > 100 µM (inactive) | > 100 µM (inactive) | > 100 µM (inactive) | > 100 µM (inactive) | > 100 µM (inactive) |  | 9.48 µM (inactive) | > 100 µM (inactive) |  | > 100 µM (inactive) |
| Cc1cc(O)no1 [HYMEXAZOL] | > 100 µM (inactive) | 18.9 µM (inactive) | > 100 µM (inactive) | > 100 µM (inactive) | > 100 µM (inactive) | > 100 µM (inactive) | > 100 µM (inactive) | > 100 µM (inactive) |  | > 100 µM (inactive) | > 100 µM (inactive) | > 100 µM (inactive) |  | > 100 µM (inactive) | > 100 µM (inactive) |  | > 100 µM (inactive) | > 100 µM (inactive) |  | > 100 µM (inactive) |
| COC1=CC(O)(CC(N)=O)c2ccccc2C1=O (centres undefined) | > 100 µM (inactive) | > 100 µM (inactive) | > 100 µM (inactive) | > 100 µM (inactive) | > 100 µM (inactive) | > 100 µM (inactive) | > 100 µM (inactive) |  | > 100 µM (inactive) | > 100 µM (inactive) | > 100 µM (inactive) | > 100 µM (inactive) | > 100 µM (inactive) | > 100 µM (inactive) | > 100 µM (inactive) |  | > 100 µM (inactive) | > 100 µM (inactive) |  | > 100 µM (inactive) |
| O=C(O)c1cc2ccccc2c(Cc2c(O)c(C(=O)O)cc3ccccc23)c1O [PAMOIC ACID] | > 100 µM (inactive) | > 100 µM (inactive) |  | > 100 µM (inactive) | > 100 µM (inactive) | > 100 µM (inactive) | > 100 µM (inactive) |  | > 100 µM (inactive) | > 100 µM (inactive) | > 100 µM (inactive) |  | > 100 µM (inactive) |  | > 100 µM (inactive) | > 100 µM (inactive) | > 100 µM (inactive) | > 100 µM (inactive) | > 100 µM (inactive) | > 100 µM (inactive) |
| COc1cc2c(cc1OC)C(C#N)(Cc1ccccc1)N(C(=O)c1ccccc1)C=C2 (centres undefined) | > 100 µM (inactive) | 82.8 µM (inactive) | 35.2 µM (inactive) | 39.6 µM (inactive) | 51.5 µM (inactive) | > 100 µM (inactive) | > 100 µM (inactive) |  | 32.5 µM (inactive) | 46.3 µM (inactive) | 65.8 µM (inactive) | 75.3 µM (inactive) | > 100 µM (inactive) | 70.6 µM (inactive) | 81.5 µM (inactive) |  | 50.6 µM (inactive) | 36 µM (inactive) |  | 24.4 µM (inactive) |
| COc1c(Br)cc(/C=C(\C#N)c2ccccn2)cc1Br | 4.09 µM (inactive) | > 100 µM (inactive) | > 100 µM (inactive) | 1.26 µM (inactive) | 22.2 µM (inactive) | 51.4 µM (inactive) |  | 26.1 µM (inactive) | > 100 µM (inactive) | > 100 µM (inactive) | 34.5 µM (inactive) | 15.3 µM (inactive) | > 100 µM (inactive) | 0.891 µM (active) | > 100 µM (inactive) |  | > 100 µM (inactive) | > 100 µM (inactive) | 37.8 µM (inactive) | 22.8 µM (inactive) |
| CC(=O)NC(CCCCNC(=O)OCc1ccccc1)C(=O)NCc1ccccc1 (centres undefined) | > 100 µM (inactive) | > 100 µM (inactive) | > 100 µM (inactive) | > 100 µM (inactive) | > 100 µM (inactive) | > 100 µM (inactive) | > 100 µM (inactive) |  | > 100 µM (inactive) | > 100 µM (inactive) | > 100 µM (inactive) | > 100 µM (inactive) | > 100 µM (inactive) | 31.7 µM (inactive) | > 100 µM (inactive) |  | > 100 µM (inactive) | > 100 µM (inactive) |  | > 100 µM (inactive) |
